Laboratory results published in patent US20090036498A1, “FLY CONTROL METHOD” (priority 2007, published 2009).

Experiments:
[1] = test system: Adult L. serricata (blowflies); assay: Test A: adult blowflies on blood agar containing test compound, number of dead flies scored; assay type: in vivo, Lucilia sericata; conditions: 4 flies in test; for Number dead flies at 2 hours: scored at 2 hours; for Number dead flies at 4 hours: scored at 4 hours; for Number dead flies at 24 hours: scored at 24 hours
Protocol: Adult L. serricata (blowflies): Adult flies are placed on beds of blood agar (in individual test wells; 4 flies per well) in which test compound (3-bromo-1-(3-chloro-2-pyridinyl)-N-[4-cyano-2-methyl-6-[(methylamino)carbonyl]phenyl]-1H-pyrazole-5-carboxamide) was dissolved/suspended prior to hardening of agar. Flies can take up test compound by both ingestion and contact. Assays are scored by number of dead flies at 2 hours, 4 hours, and 24 hours.

[2] = test system: Newly emerged larvae of blowfly, Lucilica sericata; assay: Blowfly larvae on filter paper discs with test compound mixed in dried blood bovine serum, mortality; assay type: in vivo; conditions: Lucilia sericata, assessed at 24 hours, four replicates per data point
Protocol: L. serricata (Insect; Blowfly) Larvae.
Test compound (3-bromo-1-(3-chloro-2-pyridinyl)-N-[4-cyano-2-methyl-6-[(methylamino)-carbonyl]phenyl]-1H-pyrazole-5-carboxamide) was mixed with dried blood bovine serum and placed on filter paper discs. Newly emerged larvae of blowfly, Lucilica sericata were added to the filter paper, which were ingested by larvae. Activity may occur through both feeding and contact. Four replicates were run per data point. Activity was assessed at 24 hours.

Structure (SMILES) | Number dead flies at 2 hours ([1]; Rate 1 ppm in blood agar) | Number dead flies at 4 hours ([1]; Rate 1 ppm in blood agar) | Number dead flies at 24 hours ([1]; Rate 1 ppm in blood agar) | Number dead flies at 2 hours ([1]; Rate 10 ppm in blood agar) | Number dead flies at 4 hours ([1]; Rate 10 ppm in blood agar) | Number dead flies at 24 hours ([1]; Rate 10 ppm in blood agar) | Number dead flies at 2 hours ([1]; Rate 25 ppm in blood agar) | Number dead flies at 4 hours ([1]; Rate 25 ppm in blood agar) | Number dead flies at 24 hours ([1]; Rate 25 ppm in blood agar) | Number dead flies at 2 hours ([1]; Rate 50 ppm in blood agar) | Number dead flies at 4 hours ([1]; Rate 50 ppm in blood agar) | Number dead flies at 24 hours ([1]; Rate 50 ppm in blood agar) | Number dead flies at 2 hours ([1]; Rate 100 ppm in blood agar) | Number dead flies at 4 hours ([1]; Rate 100 ppm in blood agar) | Number dead flies at 24 hours ([1]; Rate 100 ppm in blood agar) | mortality at 0.5 ppm [2]
CCOP(=S)(OCC)Oc1nc(Cl)c(Cl)cc1Cl [Chloropyriphos] | 0 | 1 | 4 | 1 | 4 | 4 | 3 | 4 | 4 | 4 | 4 | 4 | 4 | 4 | 4 | –
CNC(=O)c1cc(C#N)cc(C)c1NC(=O)c1cc(Br)nn1-c1ncccc1Cl [Test compound, 3-bromo-1-(3-chloro-2-pyridinyl)-N-[4-cyano-2-methyl-6-[(methylamino)-carbonyl]phenyl]-1H-pyrazole-5-carboxamide] | 0 | 0 | 0 | 0 | 0 | 1 | 0 | 0 | 2 | 0 | 0 | 3 | 0 | 0 | 3 | 90 to 100%
N#Cc1nn(-c2c(Cl)cc(C(F)(F)F)cc2Cl)c(N)c1[S+]([O-])C(F)(F)F (stereo not drawn) [Fipronil, (.+−.)-5-amino-1-(2,6-dichloro-α,α,α-triflu-oro-p-tolyl)-4-trifluoromethyl-sulphinylpyrazol-3-carbonitrile, reference compound] | – | – | – | – | – | – | – | – | – | – | – | – | – | – | – | 90 to 100%
